Test results as given in the NIST ThermoML archive (doi:10.1016/j.jct.2013.08.033).
Numbers after ± are expanded uncertainties.

Assay: xn = mol fraction of the nth substance listed
Settings: 101 kPa, Liquid; for mass density: Pycnometric method; for speed of sound: Pulse-echo method

CCC(O)CO (stereo not given) [1,2-butanediol] + CCCCO
Settings | mass density, 293.15 K [kg/m3] | mass density, 298.15 K [kg/m3] | mass density, 303.15 K [kg/m3] | mass density, 308.15 K [kg/m3] | speed of sound, 298.15 K [m/s]
x1 = 0.05027 | 819.25 ± 0.3 | 815.37 ± 0.31 | 811.5 ± 0.32 | 807.63 ± 0.33 | 1248.1 ± 1.4
x1 = 0.1001 | 828.73 ± 0.31 | 824.84 ± 0.32 | 820.98 ± 0.33 | 817.06 ± 0.34 | 1256.3 ± 1.4
x1 = 0.1501 | 838.28 ± 0.32 | 834.4 ± 0.33 | 830.49 ± 0.34 | 826.61 ± 0.35 | 1264.1 ± 1.4
x1 = 0.3 | 867.03 ± 0.35 | 863.1 ± 0.36 | 859.21 ± 0.37 | 855.24 ± 0.38 | 1289.6 ± 1.4
x1 = 0.4004 | 886.32 ± 0.37 | 882.4 ± 0.38 | 878.47 ± 0.39 | 874.54 ± 0.41 | 1307.8 ± 1.4
x1 = 0.4994 | 905.4 ± 0.4 | 901.47 ± 0.41 | 897.58 ± 0.42 | 893.65 ± 0.43 | 1327.2 ± 1.5
x1 = 0.6002 | 924.85 ± 0.42 | 920.95 ± 0.44 | 917.07 ± 0.45 | 913.17 ± 0.46 | 1348.3 ± 1.5
x1 = 0.7001 | 944.16 ± 0.46 | 940.28 ± 0.47 | 936.42 ± 0.48 | 932.51 ± 0.49 | 1371.1 ± 1.5
x1 = 0.85 | 973.21 ± 0.51 | 969.42 ± 0.52 | 965.57 ± 0.53 | 961.69 ± 0.54 | 1408.2 ± 1.6
x1 = 0.8998 | 982.93 ± 0.53 | 979.12 ± 0.54 | 975.25 ± 0.55 | 971.41 ± 0.56 | 1421.8 ± 1.6
x1 = 0.9498 | 992.62 ± 0.55 | 988.87 ± 0.56 | 985.02 ± 0.57 | 981.19 ± 0.58 | 1435.5 ± 1.6
x1 = 1 | 1002.32 ± 0.57 | 998.59 ± 0.58 | 994.78 ± 0.59 | 990.97 ± 0.6 | 1449.9 ± 1.6
